Data as given in PubChem BioAssay AID2060600 (Molecular Pharmacology Branch, DTP, NCI, 2025).

Test system: 996289-038-R-J1-PDC complex spheroid viability
Assay: Anticancer human tumor 996289-038-R-J1-PDC patient-derived colon adenocarcinoma cell line growth inhibition [CLK]
Conditions: for IC50: curve of first compound; for viability, T/C: stronger effect = lower value
Source text: A high-throughput screen of multi-cell type tumor spheroids was designed to identify active combinations of […] and targeted small molecules. Complex spheroids include a stromal component modeled by human endothelial cells (HUVEC) and fibroblasts modeled by human mesenchymal stem cells (MSCs). The concentration ranges selected for each drug and investigational agent were based upon clinically achievable concentrations if the clinical Cmax of the agent was known.
Compounds. The drugs and investigational agents: cirtuvivint (SM08502; NSC835563), CC-671 (NSC850746), vemurafenib (NSC761431), tapotoclax (NSC804041), sotorasib (NSC818433), adagrasib (NSC831453), MRTX-1133 (NSC836407), BAY2416964 (NSC825713), copanlisib (NSC816437), inavolisib (NSC800729), abemaciclib (NSC768073), osimertinib (NSC779217), entinostat (NSC756642), eltanexor (KPT-8602, NSC794443), venetoclax (NSC766270), ceralasertib (NSC777638), bortezomib (NSC756655), olaparib (NSC753686), talazoparib (NSC767125), alisertib (NSC759677), peposertib (NSC802822), gemcitabine (NSC613327), 5-fluorouracil (NSC19893), SN-38 (NSC673596), oxaliplatin (NSC266046), paclitaxel (NSC125973), and doxorubicin (NSC123127), were obtained from the National Cancer Institute (NCI) Developmental Therapeutics Program Chemical Repository. The FDA-approved anticancer drug set is available from the Developmental Therapeutics Program at https://dtp.cancer.gov/organization/dscb/obtaining/available plates.htm. […] The stock solutions were prepared in dimethyl sulfoxide (DMSO, Sigma-Aldrich, St. Louis, MO, cat. D2650), except for the platinum complexes which were prepared in saline (Quality Biological, Gaithersburg, MD, cat. 114-055-101), at 800-fold the tested concentration and stored at -70 degrees C prior to their use. All drugs and investigational agents were tested over a range starting from a high concentration at or near the clinical Cmax and decreasing in half-log increments. If the clinical Cmax for an agent had not been determined, the highest concentration tested was 10 microM.
Cell Culture. All cells were maintained in an incubator at 37 degrees C and 5% CO2 with 95% humidity. The PDC lines were cultured according to standard operating procedures established by the NCI PDMR. Briefly, all PDCs were thawed and cultured in Matrigel-coated flasks prepared with a working solution of 1X Ham's F-12 nutrient mix, without supplementation (Invitrogen, Waltham, MA, cat. 11765054), 100 U/mL penicillin-streptomycin (Invitrogen, cat. 15140122), and 2.5% Matrigel (Corning Inc., Corning, NY, cat. 354248) for the first three passages. The 947758-054-R-J2-PDC line was cultured in 6B/Colon 1A media, which includes advanced DMEM/F-12 (Thermo Fisher Scientific, cat. 12634028), 10 mM HEPES (Thermo Fisher Scientific, cat. 15630080), 1X GlutaMAX supplement (Thermo Fisher Scientific, cat. 35050061), 0.1 mg/mL primocin (InvivoGen, cat. ant-pm-2), 10% defined fetal bovine serum, heat inactivated (HyClone Laboratories Inc., cat. SH30070.03HI), 1.25 mM N-Acetyl-L-cysteine (Sigma-Aldrich, cat. A9165), 10 mM nicotinamide (Sigma-Aldrich, cat. N0636), 1X B-27 supplement (Thermo Fisher Scientific, cat. 17504044), 1X N-2 supplement (Thermo Fisher Scientific, cat. 17502048), and 10 microM Y-27632 dihydrochloride (Tocris Bioscience, cat. 1254). The 876862-298-R-J1-PDC was cultured in 6E media, which includes all 6B/Colon 1A media components plus 50% L-WRN conditioned media (ATCC, cat. CRL-3276), 50 ng/mL recombinant human EGF recombinant protein (hEGF; Thermo Fisher Scientific, cat. PHG0311), 10 ng/mL recombinant human fibroblast growth factor 10 (hGFG-10; PeproTech, cat. 100-26), 1 ng/mL recombinant human fibroblast growth factor 2 (hFGF-2; PeproTech, cat. 100-18B), and 1 µM prostaglandin E2 (PGE2; Tocris, cat. 2296). The 227483-062-R1-J1-PDC line was cultured in Panc media, containing all 6E components except hFGF-2, with the addition of 500 nM SB-431542 (Selleckchem, cat. S1067) and 10 nM gastrin (Tocris, cat. 3006). […]
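Note: spheroids exposed to the agents for 7 days before readout.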

**Q.** Which IC50 (second compound 0.0316 µM) does the source give for CCN1CCN(Cc2ccc(Nc3ncc(F)c(-c4cc(F)c5nc(C)n(C(C)C)c5c4)n3)nc2)CC1 + CN1CCN(c2cc(C(=O)Nc3cc4cc(-c5cnn(C)c5)ccc4cn3)ccn2)CC1 here?
**A.** > 1000 nM

**Q.** And the IC50 (second compound 0.1 µM)?
**A.** > 1000 nM

**Q.** What about the IC50 (second compound 0.316 µM) of the same compound?
**A.** 753 nM

**Q.** And the IC50 (second compound 1 µM)?
**A.** < 3.16 nM

**Q.** What about the IC50 (second compound 3.16 µM) of the same compound?
**A.** < 3.16 nM

**Q.** And the IC50 (second compound 10 µM)?
**A.** < 3.16 nM

**Q.** What about the viability, T/C (second compound 0.0316 µM, first compound 0.00316 µM) of the same compound?
**A.** 95.8%

**Q.** What about the viability, T/C (second compound 0.0316 µM, first compound 0.01 µM) of the same compound?
**A.** 97.3%

**Q.** And the viability, T/C (second compound 0.0316 µM, first compound 0.0316 µM)?
**A.** 82.6%

**Q.** And the viability, T/C (second compound 0.0316 µM, first compound 0.1 µM)?
**A.** 82.5%

**Q.** And the viability, T/C (second compound 0.0316 µM, first compound 0.316 µM)?
**A.** 79.7%

**Q.** And the viability, T/C (second compound 0.0316 µM, first compound 1 µM)?
**A.** 76.8%

**Q.** What about the viability, T/C (second compound 0.1 µM, first compound 0.00316 µM) of the same compound?
**A.** 101%

**Q.** And the viability, T/C (second compound 0.1 µM, first compound 0.01 µM)?
**A.** 85.7%

**Q.** And the viability, T/C (second compound 0.1 µM, first compound 0.0316 µM)?
**A.** 86.4%

**Q.** What about the viability, T/C (second compound 0.1 µM, first compound 0.1 µM) of the same compound?
**A.** 81.4%

**Q.** What about the viability, T/C (second compound 0.1 µM, first compound 0.316 µM) of the same compound?
**A.** 68.8%

**Q.** And the viability, T/C (second compound 0.1 µM, first compound 1 µM)?
**A.** 71%

**Q.** What about the viability, T/C (second compound 0.316 µM, first compound 0.00316 µM) of the same compound?
**A.** 64.8%

**Q.** And the viability, T/C (second compound 0.316 µM, first compound 0.01 µM)?
**A.** 62.5%

**Q.** And the viability, T/C (second compound 0.316 µM, first compound 0.0316 µM)?
**A.** 58.7%

**Q.** And the viability, T/C (second compound 0.316 µM, first compound 0.1 µM)?
**A.** 53.4%

**Q.** What about the viability, T/C (second compound 0.316 µM, first compound 0.316 µM) of the same compound?
**A.** 51.3%

**Q.** What about the viability, T/C (second compound 0.316 µM, first compound 1 µM) of the same compound?
**A.** 50.8%

**Q.** And the viability, T/C (second compound 1 µM, first compound 0.00316 µM)?
**A.** 6.12%

**Q.** And the viability, T/C (second compound 1 µM, first compound 0.01 µM)?
**A.** 6.14%

**Q.** And the viability, T/C (second compound 1 µM, first compound 0.0316 µM)?
**A.** 7.95%

**Q.** And the viability, T/C (second compound 1 µM, first compound 0.1 µM)?
**A.** 8.35%

**Q.** And the viability, T/C (second compound 1 µM, first compound 0.316 µM)?
**A.** 10.1%

**Q.** What about the viability, T/C (second compound 1 µM, first compound 1 µM) of the same compound?
**A.** 2.91%

**Q.** What about the viability, T/C (second compound 3.16 µM, first compound 0.00316 µM) of the same compound?
**A.** 1.14%

**Q.** And the viability, T/C (second compound 3.16 µM, first compound 0.01 µM)?
**A.** 1.05%

**Q.** What about the viability, T/C (second compound 3.16 µM, first compound 0.0316 µM) of the same compound?
**A.** 0.74%

**Q.** And the viability, T/C (second compound 3.16 µM, first compound 0.1 µM)?
**A.** 1.08%

**Q.** And the viability, T/C (second compound 3.16 µM, first compound 0.316 µM)?
**A.** 1.2%

**Q.** And the viability, T/C (second compound 3.16 µM, first compound 1 µM)?
**A.** 2.28%

**Q.** And the viability, T/C (second compound 10 µM, first compound 0.00316 µM)?
**A.** 0.58%

**Q.** And the viability, T/C (second compound 10 µM, first compound 0.01 µM)?
**A.** 0.55%

**Q.** And the viability, T/C (second compound 10 µM, first compound 0.0316 µM)?
**A.** 0.57%

**Q.** What about the viability, T/C (second compound 10 µM, first compound 0.1 µM) of the same compound?
**A.** 0.88%

**Q.** What about the viability, T/C (second compound 10 µM, first compound 0.316 µM) of the same compound?
**A.** 0.37%

**Q.** And the viability, T/C (second compound 10 µM, first compound 1 µM)?
**A.** 0.53%
